# From ChEMBL document CHEMBL1201862, “PubChem BioAssay data set” (2004)
# The source made the active and inactive calls.
# Key:
# INS1 = test: beta cell apoptosis inhibitors, cytokine rescue, dose response, luminescence, retest (AID 449756); type: functional, cell-based; settings: Rattus norvegicus;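 note: cell death triggered by IL-1 beta plus TNF-alpha plus IFN-gamma mixture; protective hits raise ATP signal compared with cytokine alone wells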
# [1] = THP-1 cell cytotoxicity, dose response, cytotoxicity control for Vif-APOBEC3G degradation inhibitor project, THP-1 cells (AID 1117359); type: functional; settings: Human immunodeficiency virus 1, THP-1
# [2] = target: T1, COUP transcription factor 2 (Homo sapiens, UniProt P24468); test: Luminescence-based cell-based high throughput dose response assay to identify inhibitors of COUP-TFII (NR2F2).; type: functional;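 note: HEK293 cells transiently cotransfected with COUP-TFII expression vector and reporter; luciferase reporter luminescence driven by COUP-TFII from the pX2-168 reporter plasmid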
# T1 sequence (P24468 whole entry): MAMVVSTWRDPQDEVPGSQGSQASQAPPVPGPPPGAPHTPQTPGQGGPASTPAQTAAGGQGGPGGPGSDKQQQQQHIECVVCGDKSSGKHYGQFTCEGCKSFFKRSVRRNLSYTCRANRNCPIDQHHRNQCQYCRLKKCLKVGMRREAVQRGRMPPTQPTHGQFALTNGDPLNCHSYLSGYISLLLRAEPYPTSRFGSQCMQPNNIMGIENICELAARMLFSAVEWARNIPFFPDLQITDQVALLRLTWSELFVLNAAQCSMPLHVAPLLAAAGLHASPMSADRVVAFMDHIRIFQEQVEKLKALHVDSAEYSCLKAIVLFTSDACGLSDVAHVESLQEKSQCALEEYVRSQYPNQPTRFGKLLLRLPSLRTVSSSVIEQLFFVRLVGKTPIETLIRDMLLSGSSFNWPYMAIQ
# [3] = target: Glutathione-S-transferase (Schistosoma japonicum, UniProt Q26513); test: biotin-GST/anti-GST TR-FRET signal inhibitors, dose response, artefact control for Vif-APOBEC3G degradation inhibitor project, biochemical (AID 1117362); type: functional
# Sequence of Glutathione-S-transferase (Q26513 whole entry): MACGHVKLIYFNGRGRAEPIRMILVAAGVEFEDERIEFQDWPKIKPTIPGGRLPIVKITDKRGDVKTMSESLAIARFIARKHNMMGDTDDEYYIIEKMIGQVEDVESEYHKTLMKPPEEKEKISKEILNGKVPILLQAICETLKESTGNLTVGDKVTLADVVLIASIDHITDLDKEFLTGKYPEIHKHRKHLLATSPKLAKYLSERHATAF
# HEK293 = test: inhibitors of LMP1-driven NF-kB reporter, dose response, cell-based, HEK293, luciferase, cherry-pick (AID 588343); type: functional, Homo sapiens; settings: Homo sapiens, HEK293
# Transthyretin = Transthyretin (Homo sapiens, UniProt P02766); test: Luminescence-based cell-based high throughput dose response assay to identify activators of Transthyretin (TTR) transcription.; type: functional
# [4] = Luminescence Cell-Based Dose Response HTS to Identify Inhibitors of 5'UTR Stem-Loop Driven Prion Protein mRNA Translation in H4 Neuroglioblastoma Cells. [Related pubchem assays: 1827 (Project Summary), 1813 (Primary HTS)]; type: functional
# [5] = Shn3 3'UTR reporter inhibitors, dose response, cell-based, Clone20 osteoblasts, firefly luciferase, cherry-picked (AID 624132); type: functional;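 note: firefly luciferase luminescence from reporter carrying the Shn3 3'UTR in osteoblasts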
# [6] = inhibitors of SNCA 5'UTR-driven translation, confirmation, luminescence, H4 neuroglioblastoma cells, dose confirmation (AID 2454); type: functional, cell-based;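 note: H4 neuroglioblastoma cells carrying an alpha-synuclein 5'UTR luciferase reporter; potency for inhibition of the luciferase signal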
# [7] = cytotoxicity dependent on PAX8, dose response, cell-based, plate reader, dry powder (AID 743049); type: functional
# [8] = inhibitors of firefly luciferase expression or activity, dose response, H4 neuroglioma cells, luminescence (AID 1990); type: functional, cell-based
# Paired box protein Pax-8 = Paired box protein Pax-8 (Homo sapiens, UniProt Q06710); test: inhibitors of PAX8-driven TPO luciferase reporter, dose response, RMG-I cells, cherry-pick (AID 687027); type: functional, cell-based;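 note: luciferase reporter driven by Pax8 target thyroperoxidase promoter measured by SteadyGlo luminescence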
# Sequence of Paired box protein Pax-8 (Q06710 whole entry): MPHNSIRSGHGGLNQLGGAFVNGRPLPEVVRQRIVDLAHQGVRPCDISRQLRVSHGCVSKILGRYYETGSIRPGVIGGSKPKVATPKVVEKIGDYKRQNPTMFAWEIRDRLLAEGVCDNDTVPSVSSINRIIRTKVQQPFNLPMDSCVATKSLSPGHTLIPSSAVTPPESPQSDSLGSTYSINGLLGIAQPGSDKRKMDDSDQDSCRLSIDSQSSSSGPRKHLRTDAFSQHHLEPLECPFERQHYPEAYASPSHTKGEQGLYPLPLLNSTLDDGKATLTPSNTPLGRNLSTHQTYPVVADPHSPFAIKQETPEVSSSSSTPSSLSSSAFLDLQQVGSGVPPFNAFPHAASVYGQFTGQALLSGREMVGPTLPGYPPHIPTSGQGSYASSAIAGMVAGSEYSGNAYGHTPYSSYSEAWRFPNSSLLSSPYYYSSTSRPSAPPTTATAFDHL
# H4 [9] = test: inhibitors of control reporter signal in H4 cells – cell-based, plate reader, dry powder samples, counter-screen for prion reporter project, dose response (AID 540255); type: functional; settings: Homo sapiens
# cells = type: functional, cell-based
# [10] = reduction of Shn3 3'UTR firefly luciferase signal, dose response, Schnurri-3 inhibitor project, cell-based, Clone20 osteoblasts, cherry-pick, set 2 (AID 720490); type: functional;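 note: actives lower the luminescence signal as inhibitors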
# [11] = cytotoxicity in HEK-293T cells, dose response, cytotoxicity control for BCR NF-kB inhibitor project, luminescence, B-cell screen hits (AID 489021); type: functional, cell-based;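 note: HEK-293T cells carrying an NF-kB luciferase reporter; cells exposed to compound for about 14 hours before viability readout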
# [12] = luciferase reporter signal reduction – luminescence, H4-C neuroglioblastoma cells, dose response (AID 2458); type: functional, cell-based;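 note: H4 neuroglioblastoma cells stably carrying a luciferase reporter gene fusion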
# [13] = cytotoxicity in COV362 ovarian cancer cells, dose response, cytotoxicity control for PAX8 inhibitor project, cell-based, plate reader, dry powder, SA12 (AID 743144); type: functional
# [14] = PAX2 cell-based inhibition, dose response, selectivity assay for PAX8 inhibitor project, plate reader, dry powder samples (AID 743048); type: functional;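 note: HEK293 cells carrying a WT1 promoter luciferase reporter driven by expressed Pax2; potency is for inhibition of Pax2 driven reporter signal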
# [15] = inhibitors of SNCA 5'UTR-driven reporter translation, confirmation, H4 neuroglioma cells, luminescence (AID 1988); type: functional, cell-based
# H4 [16] = test: Inhibitors of Prion Protein 5' UTR mRNA Measured in Cell-Based System Using Plate Reader - 2078-01_Inhibitor_Dose_DryPowder_Activity. [Related pubchem assays (depositor defined):AID488894]; type: functional; settings: Homo sapiens
# [17] = Luminescence-based counterscreen assay for KLF5 inhibitors: dose response cell-based high throughput screening assay to identify cytotoxic compounds using the IEC-6 intestinal epithelial cell line. [Related pubchem assays: 1700 (Primary screen.), 1834 (Confirmation screen.), 1858 (Summary AID.), 1905 (Counterscreen.)]; type: functional
# [18] = PAX5 activity inhibitors, dose response, selectivity assay for PAX8 inhibitor project, cell-based, plate reader, dry powder samples (AID 743047); type: functional;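 note: HEK293 cells carrying a Pax5 driven CD19 promoter luciferase reporter; potency of inhibitors that lower reporter luminescence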
# [19] = HEK293 cell cytotoxicity, dose response, cytotoxicity control, ATP luminescence, dry powder, set 3 (AID 743131); type: functional, cell-based
# [20] = HepG2 cell cytotoxicity, dose response, cytotoxicity control, ATP luminescence, dry powder, set 2 (AID 743129); type: functional, cell-based
# [21] = A549 cell cytotoxicity, dose response, cytotoxicity control, CellTiter-Glo luminescence, dry powder, set 5 (AID 743158); type: functional, cell-based
# [22] = target: T2, Oxysterols receptor LXR-beta (Homo sapiens, UniProt P55055); test: LXR agonists, Gal4 luciferase reporter, dose response, counter-screen for ssDAF-12 agonist project, cell-based, luminescence, HEK293, S. stercoralis campaign (AID 720737); type: functional; settings: read-out: IC50 (the source's name)
# T2 sequence (P55055 whole entry): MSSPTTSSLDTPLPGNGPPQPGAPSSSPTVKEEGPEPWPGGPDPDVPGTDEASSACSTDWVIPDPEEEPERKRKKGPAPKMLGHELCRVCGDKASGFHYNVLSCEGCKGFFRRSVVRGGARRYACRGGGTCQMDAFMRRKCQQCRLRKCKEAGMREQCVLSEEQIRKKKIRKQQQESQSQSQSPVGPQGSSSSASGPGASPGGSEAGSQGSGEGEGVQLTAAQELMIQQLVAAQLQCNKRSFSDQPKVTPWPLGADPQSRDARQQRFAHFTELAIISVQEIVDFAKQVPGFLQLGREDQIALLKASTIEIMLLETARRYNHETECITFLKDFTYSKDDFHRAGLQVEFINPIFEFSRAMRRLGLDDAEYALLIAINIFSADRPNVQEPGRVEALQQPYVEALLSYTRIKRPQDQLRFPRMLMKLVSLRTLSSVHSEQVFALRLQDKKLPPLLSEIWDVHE
# [23] = Luminescence-based cell-based high throughput dose response assay to identify activators of the DAF-12 from the parasite S. stercoralis (ssDAF-12).; type: functional
# [24] = cytotoxicity in OVCAR8 ovarian cancer cells, dose response, PAX8 project, cell-based, plate reader, dry powder samples (AID 743197); type: functional; settings: OVCAR-8
# [25] = A2780 ovarian cancer cell cytotoxicity, dose response, cytotoxicity control, plate reader, dry powder samples (AID 743046); type: functional, cell-based
# [26] = NIH:OVCAR-3 ovarian cancer cell cytotoxicity, dose response, PAX8 inhibitor project, plate reader, dry powder samples (AID 743044); type: functional, cell-based
# [27] = non-specific cell cytotoxicity, dose response, cytotoxicity control for PAX8 inhibitor project, plate reader, dry powder samples (AID 743021); type: functional, cell-based
# [28] = IOSE-T80 ovarian epithelial cell cytotoxicity, dose response, cytotoxicity control for PAX8 inhibitor project, plate reader, dry powder samples (AID 743045); type: functional, cell-based
# [29] = T. cruzi intracellular amastigote growth inhibition, dose response, imaging, CA-I/72 strain, bovine embryo skeletal muscle, dry powder (AID 651885); type: functional, cell-based
# [30] = growth inhibition of intracellular T. cruzi, dose response, cell-based, plate reader, dry powder samples (AID 651845); type: functional
# [31] = T. cruzi growth inhibition in host cells, dose response, cell-based, plate reader, dry powder, set 2 (AID 652275); type: functional
structure (smiles),measurement,setting,value
Cc1cccc2cc(-c3ccccc3)c(-c3ccccc3)c[n+]12,AC50,INS1,4.26 µM (active)
same,CC50,[1],12.2 µM (active)
same,IC50,[2],8.22 µM (active)
same,IC50,[3],18.7 µM (active)
COc1ccc2cc3c(N)nn(C(=O)c4ccccc4[N+](=O)[O-])c3nc2c1,AC50,HEK293,2.75 µM (active)
same,EC50,Transthyretin,> 167 µM (inactive)
O=C(CN1C(=O)c2ccccc2S1(=O)=O)c1ccc(Cl)cc1Cl,EC50,[4],< 0.1 µM (active)
same,AC50,[5],3.53 µM (active)
same,EC50,[6],0.774 µM (active)
same,AC50,[7],88.1 µM (active)
same,EC50,[8],0.31 µM (active)
same,AC50,Paired box protein Pax-8,2.93 µM (active)
same,AC50,H4 [9],0.456 µM (active)
same,EC50,cells,0.794 µM (active)
same,AC50,[10],5.38 µM (active)
same,IC50,[11],> 80 µM (inactive)
same,EC50,[12],0.595 µM (active)
same,AC50,[13],93.5 µM (active)
same,AC50,[14],1.18 µM (active)
same,EC50,[15],< 0.1 µM (active)
same,AC50,H4 [16],0.168 µM (active)
same,IC50,[17],> 39.8 µM (not active)
same,AC50,[18],1.37 µM (active)
CCOC(=O)c1c(-c2ccc(-c3ccccc3)cc2)csc1NC(=O)CNCCN(C)C,AC50,[19],13.3 µM (active)
same,AC50,[20],16.5 µM (active)
same,AC50,[21],17.1 µM (active)
O=C(CCN1C(=O)C2C3CCC(C3)C2C1=O)Nc1ccccc1C(F)(F)F (stereo not given),EC50,[22],> 67.6 µM (inactive)
same,IC50,[23],> 67.6 µM (inactive)
Cc1cccc(S(=O)(=O)N2C[C@@H](O)COC[C@@H]3O[C@@H](CC(=O)Nc4ccc(-c5ccccc5)cc4)CC[C@H]32)c1,AC50,[24],53.1 µM (active)
same,AC50,Paired box protein Pax-8,10.7 µM (active)
same,AC50,[25],23.2 µM (active)
same,AC50,[26],43.4 µM (active)
COc1ccccc1C#Cc1ccc([C@H]2[C@H](C#N)N(C(=O)C3CCC3)[C@H]2CO)cc1,AC50,[24],23.4 µM (active)
same,AC50,[27],32.8 µM (active)
same,AC50,Paired box protein Pax-8,5.55 µM (active)
same,AC50,[28],56.5 µM (active)
same,AC50,[26],12.6 µM (active)
C[C@@H]1CN(C)C(=O)c2cccc(NC(=O)c3ccncc3)c2O[C@H]1CN(C)Cc1ccc(Oc2ccccc2)cc1,IC50,[29],10 µM (inconclusive)
same,AC50,[30],0.0381 µM (active)
same,AC50,[31],0.00506 µM (active)
